# Values joined by “and” are separate entries in the source; they are usually repeats but may differ in a detail not shown here. Equal entries are not always repeated. Active and inactive are the calls of the source. The rule behind the calls is not given here.
# Tested on: rodent lifetime carcinogenesis bioassay, tumor incidence TD50
# Assay: chronic cancer bioassays in animals – CPDB, compiled studies (AID 1745844)
structure (smiles),measurement,setting,value
OCl,carcinogen call,"mouse, strain B6C3F1, females, in drinking water, site: any site (literature study), lesion: several types, types named in the paper, dosed 103 weeks, study length 106 weeks",negative (inactive)
same,carcinogen call,"mouse, strain B6C3F1, females, in drinking water, site: liver, lesion: hepatocellular carcinoma, dosed 103 weeks, study length 106 weeks",negative (inactive)
same,carcinogen call,"mouse, strain B6C3F1, females, in drinking water, site: liver, lesion: several types, types named in the paper, dosed 103 weeks, study length 106 weeks",negative (inactive)
same,TD50,"mouse, strain B6C3F1, females, in drinking water, site: lung, lesion: several types, types named in the paper, dosed 103 weeks, study length 106 weeks",22900 mg/kg/day (inactive)
same,TD50,"mouse, strain B6C3F1, males, in drinking water, site: any site (literature study), lesion: several types, types named in the paper, dosed 103 weeks, study length 106 weeks",350 mg/kg/day (inactive)
same,carcinogen call,"mouse, strain B6C3F1, males, in drinking water, site: liver, lesion: hepatocellular carcinoma, dosed 103 weeks, study length 106 weeks",negative (inactive)
same,TD50,"mouse, strain B6C3F1, males, in drinking water, site: liver, lesion: several types, types named in the paper, dosed 103 weeks, study length 106 weeks",876 mg/kg/day (inactive)
same,TD50,"mouse, strain B6C3F1, males, in drinking water, site: lung, lesion: several types, types named in the paper, dosed 103 weeks, study length 106 weeks",2040 mg/kg/day (inactive)
same,TD50,"rat, strain F344/DuCrj, females, in drinking water, site: liver, lesion: several types, types named in the paper, dosed 104 weeks, study length 112 weeks",6300 mg/kg/day (inactive)
same,carcinogen call,"rat, strain F344/DuCrj, males, in drinking water, site: liver, lesion: cholangioma, dosed 104 weeks, study length 112 weeks",negative (inactive)
same,carcinogen call,"rat, strain F344/DuCrj, males, in drinking water, site: liver, lesion: fibrous histiocytoma, dosed 104 weeks, study length 112 weeks",negative (inactive)
same,carcinogen call,"rat, strain F344/DuCrj, males, in drinking water, site: liver, lesion: several types, types named in the paper, dosed 104 weeks, study length 112 weeks",negative (inactive)
C=CC=O,carcinogen call,"mouse, strain Charles River CD1, females, by gavage, site: liver, lesion: hepatocellular adenoma, dosed 78 weeks, study length 78 weeks",negative (inactive)
same,carcinogen call,"mouse, strain Charles River CD1, females, by gavage, site: lung, lesion: alveolar/bronchiolar adenoma, dosed 78 weeks, study length 78 weeks",negative (inactive)
same,TD50,"mouse, strain Charles River CD1, females, by gavage, site: lung, lesion: alveolar/bronchiolar carcinoma, dosed 78 weeks, study length 78 weeks",90.3 mg/kg/day (inactive)
same,carcinogen call,"mouse, strain Charles River CD1, males, by gavage, site: liver, lesion: hepatocellular adenoma, dosed 78 weeks, study length 78 weeks",negative (inactive)
same,carcinogen call,"mouse, strain Charles River CD1, males, by gavage, site: liver, lesion: hepatocellular carcinoma, dosed 78 weeks, study length 78 weeks",negative (inactive)
same,TD50,"mouse, strain Charles River CD1, males, by gavage, site: lung, lesion: alveolar/bronchiolar adenoma, dosed 78 weeks, study length 78 weeks",526 mg/kg/day (inactive)
same,TD50,"mouse, strain Charles River CD1, males, by gavage, site: lung, lesion: alveolar/bronchiolar carcinoma, dosed 78 weeks, study length 78 weeks",62.6 mg/kg/day (inactive)
same,TD50,"rat, strain Fischer 344, females, in drinking water, site: adrenal gland, lesion: cortical adenoma, dosed 104 weeks, study length 132 weeks",93.9 mg/kg/day
same,TD50,"rat, strain Fischer 344, females, in drinking water, site: liver, lesion: hepatocellular carcinoma, dosed 104 weeks, study length 132 weeks",433 mg/kg/day
same,TD50,"rat, strain Fischer 344, females, in drinking water, site: liver, lesion: hyperplastic nodule, dosed 104 weeks, study length 132 weeks",388 mg/kg/day
same,TD50,"rat, strain Fischer 344, females, in drinking water, site: liver, lesion: several types, types named in the paper, dosed 104 weeks, study length 132 weeks",188 mg/kg/day
same,TD50,"rat, strain Fischer 344, males, in drinking water, site: forestomach, lesion: one or several types, types not named, dosed 117 weeks, study length 132 weeks",14.4 mg/kg/day
same,TD50,"rat, strain Fischer 344, males, in drinking water, site: liver, lesion: hepatocellular carcinoma, dosed 117 weeks, study length 132 weeks",1320 mg/kg/day
same,TD50,"rat, strain Sprague-Dawley, females, by gavage, site: adrenal gland, lesion: pheochromocytoma, dosed 104 weeks, study length 104 weeks",5.53 mg/kg/day
same,TD50,"rat, strain Sprague-Dawley, females, by gavage, site: liver, lesion: hepatocellular adenoma, dosed 104 weeks, study length 104 weeks",214 mg/kg/day
same,TD50,"rat, strain Sprague-Dawley, males, by gavage, site: adrenal gland, lesion: cortical adenoma, dosed 104 weeks, study length 104 weeks",0.471 mg/kg/day
same,TD50,"rat, strain Sprague-Dawley, males, by gavage, site: adrenal gland, lesion: cortical carcinoma, dosed 104 weeks, study length 104 weeks",57.7 mg/kg/day
same,TD50,"rat, strain Sprague-Dawley, males, by gavage, site: liver, lesion: hepatocellular adenoma, dosed 104 weeks, study length 104 weeks",24.7 mg/kg/day
Cc1ccc(N)c(C)c1,TD50,"mouse, strain CD-1 HaM/ICR, females, in feed, site: any site (literature study), lesion: several types, types named in the paper, dosed 77 weeks, study length 90 weeks",12.2 mg/kg/day
same,carcinogen call,"mouse, strain CD-1 HaM/ICR, females, in feed, site: liver, lesion: several types, types named in the paper, dosed 77 weeks, study length 90 weeks",negative (inactive)
same,TD50,"mouse, strain CD-1 HaM/ICR, females, in feed, site: lung, lesion: several types, types named in the paper, dosed 77 weeks, study length 90 weeks",12.4 mg/kg/day and 13.5 mg/kg/day
same,TD50,"mouse, strain CD-1 HaM/ICR, males, in feed, site: any site (literature study), lesion: several types, types named in the paper, dosed 77 weeks, study length 90 weeks",646 mg/kg/day (inactive)
same,TD50,"mouse, strain CD-1 HaM/ICR, males, in feed, site: liver, lesion: several types, types named in the paper, dosed 77 weeks, study length 90 weeks",65.4 mg/kg/day (inactive)
same,carcinogen call,"mouse, strain CD-1 HaM/ICR, males, in feed, site: lung, lesion: several types, types named in the paper, dosed 77 weeks, study length 90 weeks",negative (inactive)
same,TD50,"rat, strain Charles River CD (Sprague-Dawley), males, in feed, site: any site (literature study), lesion: several types, types named in the paper, dosed 77 weeks, study length 98 weeks",16.8 mg/kg/day (inactive)
same,TD50,"rat, strain Charles River CD (Sprague-Dawley), males, in feed, site: liver, lesion: several types, types named in the paper, dosed 77 weeks, study length 98 weeks",260 mg/kg/day (inactive)
Clc1cc(Cl)cc(-c2cc(Cl)cc(Cl)c2)c1,carcinogen call,"rat, strain Donryu, females, in feed, site: liver, lesion: one or several types, types not named, dosed 26 weeks, study length 84 weeks",negative (inactive)
O=NN1CCOC1,TD50,"hamster, strain Syrian Golden, females, by gavage, site: forestomach, lesion: several types, types named in the paper, dosed 30 weeks, study length 104 weeks",2.61 mg/kg/day
same,TD50,"hamster, strain Syrian Golden, males, by gavage, site: any site (literature study), lesion: several types, types named in the paper, dosed 35 weeks, study length 65 weeks",0.267 mg/kg/day
same,TD50,"hamster, strain Syrian Golden, males, by gavage, site: liver, lesion: cholangiocarcinoma, dosed 35 weeks, study length 65 weeks",0.471 mg/kg/day
same,TD50,"hamster, strain Syrian Golden, males, by gavage, site: liver, lesion: hepatocellular adenoma, dosed 35 weeks, study length 65 weeks",0.949 mg/kg/day
same,TD50,"hamster, strain Syrian Golden, males, by gavage, site: liver, lesion: hepatocellular carcinoma, dosed 35 weeks, study length 65 weeks",2.63 mg/kg/day
same,TD50,"hamster, strain Syrian Golden, males, by gavage, site: lung, lesion: carcinoma, dosed 35 weeks, study length 65 weeks",14.8 mg/kg/day
CC#N,carcinogen call,"mouse, strain B6C3F1, females, inhaled, site: any site (literature study), lesion: several types, types named in the paper, dosed 103 weeks, study length 105 weeks",negative (inactive)
same,carcinogen call,"mouse, strain B6C3F1, males, inhaled, site: any site (literature study), lesion: several types, types named in the paper, dosed 103 weeks, study length 104 weeks",negative (inactive)
same,TD50,"mouse, strain B6C3F1, males, inhaled, site: liver, lesion: hepatocellular adenoma + hepatoblastoma + hepatocellular carcinoma, dosed 103 weeks, study length 104 weeks",90.4 mg/kg/day
same,TD50,"mouse, strain B6C3F1, males, inhaled, site: lung, lesion: alveolar/bronchiolar adenoma + alveolar/bronchiolar carcinoma, dosed 103 weeks, study length 104 weeks",318 mg/kg/day
same,TD50,"rat, strain Fischer 344, females, inhaled, site: mammary gland, lesion: carcinoma + fibroadenoma, dosed 103 weeks, study length 104 weeks",11.5 mg/kg/day (inactive)
same,TD50,"rat, strain Fischer 344, males, inhaled, site: adrenal medulla, lesion: pheochromocytoma benign, bilateral + pheochromocytoma, benign, dosed 103 weeks, study length 104 weeks",16.9 mg/kg/day
same,TD50,"rat, strain Fischer 344, males, inhaled, site: adrenal medulla, lesion: pheochromocytoma benign, bilateral + pheochromocytoma, malignant + pheochromocytoma, benign, dosed 103 weeks, study length 104 weeks",14.8 mg/kg/day
same,TD50,"rat, strain Fischer 344, males, inhaled, site: liver, lesion: hepatocellular adenoma + hepatoblastoma + hepatocellular carcinoma, dosed 103 weeks, study length 104 weeks",168 mg/kg/day
same,TD50,"rat, strain Fischer 344, males, inhaled, site: liver, lesion: hepatocellular adenoma + hepatocellular carcinoma, dosed 103 weeks, study length 104 weeks",168 mg/kg/day
same,TD50,"rat, strain Fischer 344, males, inhaled, site: liver, lesion: hepatocellular adenoma, dosed 103 weeks, study length 104 weeks",156 mg/kg/day
same,TD50,"rat, strain Fischer 344, males, inhaled, site: liver, lesion: hepatocellular carcinoma, dosed 103 weeks, study length 104 weeks",398 mg/kg/day
same,TD50,"rat, strain Fischer 344, males, inhaled, site: skin, lesion: basal-cell adenoma + keratoacanthoma + trichoepithelioma, dosed 103 weeks, study length 104 weeks",81.6 mg/kg/day
same,TD50,"rat, strain Fischer 344, males, inhaled, site: skin, lesion: keratoacanthoma, dosed 103 weeks, study length 104 weeks",127 mg/kg/day
CC(=O)Nc1ccc(S(=O)(=O)O)c2cc(S(=O)(=O)O)c(N=Nc3ccc(N=Nc4ccc(S(=O)(=O)O)cc4)c4ccc(S(=O)(=O)O)cc34)c(O)c12,carcinogen call,"mouse, strain CFW, females, in feed, site: liver, lesion: one or several types, types not named, dosed 80 weeks, study length 80 weeks",negative (inactive)
same,carcinogen call,"mouse, strain CFW, females, in feed, site: lung, lesion: adenoma, dosed 80 weeks, study length 80 weeks",negative (inactive)
same,carcinogen call,"mouse, strain CFW, males, in feed, site: liver, lesion: one or several types, types not named, dosed 80 weeks, study length 80 weeks",negative (inactive)
same,TD50,"mouse, strain CFW, males, in feed, site: lung, lesion: adenoma, dosed 80 weeks, study length 80 weeks",3660 mg/kg/day (inactive)
same,carcinogen call,"rat, strain CFE, females, in feed, site: liver, lesion: one or several types, types not named, dosed 104 weeks, study length 104 weeks",negative (inactive)
same,carcinogen call,"rat, strain CFE, males, in feed, site: liver, lesion: one or several types, types not named, dosed 104 weeks, study length 104 weeks",negative (inactive)
C[C@](N)(Cc1ccc(O)c(O)c1)C(=O)O,carcinogen call,"mouse, strain B6C3F1, females, in feed, site: any site (literature study), lesion: several types, types named in the paper, dosed 103 weeks, study length 104 weeks",negative (inactive)
same,TD50,"mouse, strain B6C3F1, females, in feed, site: lung, lesion: alveolar/bronchiolar adenoma + alveolar/bronchiolar carcinoma, dosed 103 weeks, study length 104 weeks",25000 mg/kg/day
same,TD50,"mouse, strain B6C3F1, males, in feed, site: kidney, lesion: tubular-cell adenoma + tubular-cell adenocarcinoma, dosed 103 weeks, study length 104 weeks",20100 mg/kg/day
same,TD50,"rat, strain Fischer 344, females, in feed, site: any site (literature study), lesion: several types, types named in the paper, dosed 103 weeks, study length 104 weeks",592 mg/kg/day (inactive)
same,carcinogen call,"rat, strain Fischer 344, males, in feed, site: any site (literature study), lesion: several types, types named in the paper, dosed 103 weeks, study length 104 weeks",negative (inactive)
CCn1cc(C(=O)O)c(=O)c2cc3c(cc21)OCO3,TD50,"mouse, strain ICR, females, in feed, site: liver, lesion: hepatocellular adenoma, dosed 78 weeks, study length 78 weeks",572 mg/kg/day
same,TD50,"mouse, strain ICR, females, in feed, site: lung, lesion: adenoma, dosed 78 weeks, study length 78 weeks",55.1 mg/kg/day
same,TD50,"rat, strain Wistar, females, in feed, site: any site (literature study), lesion: benign tumor, dosed 104 weeks, study length 104 weeks",589 mg/kg/day
same,TD50,"rat, strain Wistar, females, in feed, site: any site (literature study), lesion: malignant tumor, dosed 104 weeks, study length 104 weeks",1040 mg/kg/day
same,TD50,"rat, strain Wistar, females, in feed, site: any site (literature study), lesion: several types, types named in the paper, dosed 104 weeks, study length 104 weeks",68.5 mg/kg/day
same,TD50,"rat, strain Wistar, females, in feed, site: liver, lesion: hepatocellular carcinoma, dosed 104 weeks, study length 104 weeks",2440 mg/kg/day
same,TD50,"rat, strain Wistar, males, in feed, site: any site (literature study), lesion: malignant tumor, dosed 104 weeks, study length 104 weeks",1790 mg/kg/day
same,TD50,"rat, strain Wistar, males, in feed, site: testis, lesion: Leydig-cell adenoma, dosed 104 weeks, study length 104 weeks",167 mg/kg/day
CC(=O)N(O)c1ccc(-c2ccccc2)cc1,carcinogen call,"rat, strain Not specified, females, in feed, site: liver, lesion: one or several types, types not named, dosed 43 weeks, study length 65 weeks",negative (inactive)

# Source: PubChem BioAssay AID1745844 (Carcinogenic Potency Database (CPDB), 2022)
